Results on one compound are retold here after article PMC12534982 (Journal of Experimental & Clinical Cancer Research : CR, 2025).

Data set [1] has as its system SW620 cells. Nature of the data set: Mitochondrial respiration (OCR) in intact cells. The class given is cell-based, human. The following applies: 24 h. The method, then: Oxygen consumption rate (OCR) was measured using a high-resolution respirometer (Oxygraph-2k, Oroboros Instruments, Innsbruck, Austria). SW620 cells (2.2 × 10^6) were cultured in 100-mm Petri dishes and treated with DMSO or NK-A 17E-233I (25 µM) for 24 h. Cells were harvested at 80% confluency using 0.25% trypsin/EDTA and resuspended in complete DMEM at a concentration of 5 × 10^5 cells/mL. The cells were subsequently analyzed in two 2 mL Oxygraph chambers. Real-time measurements of OCR were conducted at 37 °C under basal conditions and following the sequential addition of inhibitors targeting various mitochondrial respiratory complexes: oligomycin (2.5 μM) to inhibit complex V (to assess ATP-linked respiration and leak rate), carbonyl cyanide-p-trifluoromethoxyphenylhydrazone (FCCP) with stepwise titration in 0.5 μM increments (to evaluate maximal electron transport system respiratory capacity and reserve capacity), and rotenone (0.5 μM) and antimycin A (2.5 μM) to inhibit complex I and complex III, respectively (to measure non-mitochondrial oxygen consumption). The values of OCR were normalized to mitochondrial DNA copy number, which was quantified by qPCR using the primers referenced above. Data analysis was performed using DatLab7 (Oroboros, Austria) software.

Data set [2] concerns colorectal cancer cells. The data set can be described thus: Annexin V-FITC/PI double staining. The class given is cell-based, human. The following applies: 25 µM. The method, then:
Cells were harvested as described in the flow cytometry-based cell cycle analysis section. The supernatant was discarded, and the cells were resuspended in 100 μL of cold Annexin buffer (pH 7.4) composed of 18 mL distilled water, 5.5 mg CaCl2, 164 mg NaCl, and 2 mL of 100 mM HEPES. A 1:1 mixture of Annexin V (#130–097-928; Miltenyi Biotec) and propidium iodide (PI, 1 mg/mL) was added to all tubes and incubated in the dark at room temperature for 20 min. Annexin buffer was added, and the samples were analyzed using a CytoFLEX within 1 h. CytExpert and FlowJo software were utilized for data acquisition and analysis.

Data set [3] concerns colorectal cancer cells. Nature of the data set: Live-cell imaging. The class given is cell-based, human. The note with it: 25 µM, 24 h time-lapse. The method, then: Following staining, cells were treated with either DMSO or NK-A 17E-233I (25 µM) and subjected to time-lapse imaging for another 24 h, with an acquisition time of 1 h between frames. Cells were maintained at 37 °C with 5% CO2 and 95% humidity using Okolab chambers and monitored with a Leica DMi8 microscope equipped with a Leica DFC9000GT camera. Images were captured in brightfield and at 405 nm to visualize the nuclei using a 20X objective (HC PL FLUOTAR 20x/0.75). Images were processed using Leica Application Suite X (LAS X) Life Science Microscope Software (v3.5.5.19976, RRID:SCR_013673).

Data set [4] concerns colorectal cancer cells. The data set can be described thus: Mitochondrial membrane potential (MitoTracker Red). The class given is cell-based, human. The method, then: Cancer cells (1 × 10^3) were cultured in 8-well collagen IV Ibidi chamber slides and treated with DMSO or NK-A 17E-233I (25 µM) for 24 h. The media was replaced with fresh media containing 100 nM MitoTracker Red dye to measure ΔΨm (1 mM stock; #M7512; Thermo Fisher Scientific) and 5 µM CellROX Deep Red Reagent to assess oxidative stress levels (2.5 mM stock; #C10422; Thermo Fisher Scientific) for 45 min. The cells were then fixed with 4% methanol-free PFA, washed with PBS, and mounted with Ibidi mounting medium containing 4',6-diamidino-2-phenylindole (DAPI) prior to imaging.
The density of γ-H2AX, Rad51, ΔΨm, and oxidative stress in cancer cells was measured as described in [32], utilizing custom macros available as open access at Zenodo (https://zenodo.org/records/8387899) to obtain raw intensities and individual cell area.

Data set [5] deals with basal forebrain cholinergic neurons (BFCNs). The data set can be described thus: Cytoskeleton immunostaining. Type of data set: cell-based, mouse. The note with it: 24 h. The method, then:
To evaluate DNA damage, cancer cells (1 × 10^3) were cultured in 8-well collagen IV Ibidi chamber slides (#80,822; Ibidi) for 24 h, treated with DMSO or NK-A 17E-233I (25 µM) for an additional 24 h, and then fixed. For assessing the integrity of the cytoskeleton, neuronal cells (BFCNs) were cultured on coverslips for 14 days, while non-neuronal cells (cancer cells) were cultured on coverslips for 24 h. Both neuronal and non-neuronal cells were treated with DMSO or NK-A 17E-233I (1 µM) for 24 h, fixed, and permeabilized as described in [21]. Samples were then blocked (non-neuronal cells with 3% BSA in PBS-T and neuronal cells with 10% BSA in PBS-T) and incubated overnight at 4 °C with the appropriate primary antibodies. Following this, samples were washed with PBS-T and incubated for 1 h with Alexa-488 Phalloidin (#A12379; Invitrogen-ThermoFisher Scientific) to visualize F-actin, along with the corresponding secondary antibodies. The cells were mounted with Ibidi mounting medium containing 4',6-diamidino-2-phenylindole (DAPI, #50011; Ibidi) prior to imaging.
The primary antibodies utilized were: anti–α-tubulin at a 1:1000 dilution (#SC-32293; Santa Cruz), anti–γ-H2AX and anti-Rad51 at 1:500 dilution (#ab22551 and #ab133534, respectively; […]), and anti–microtubule-associated protein 2 (MAP2) at a 1:1000 dilution (#OSM00149W; ThermoFisher Scientific). […]

Data set [6] has as its system cell lines from other cancer types (osteosarcoma, breast, lung). The data set can be described thus: Cell morphology studies (brightfield). Type of data set: cell-based, human. The following applies: 25 µM, 48 h. An excerpt:
Brightfield images were captured using a Leica DMi8 microscope with a 10X or 20X objective (HC PL FLUOTAR 10X/0.45 or 20X/0.75) equipped with a Leica DFC9000GT camera, and processed with a Leica Application Suite X (LAS X) Life Science Microscope Software (v3.5.5.19976, RRID:SCR_013673).

The test system of data set [7] is tumor-derived intestinal organoids. The data set can be described thus: Organoid viability (CellTiter-Glo 3D). The note with it: 96 h. The class given is cell-based, human. In general terms: Cellular ATP, detected with luciferase, serves as a proxy for viable cell number.

For `COc1cc(C)c(Oc2cc(C)cc(O)c2O)c(O)c1` [NK-A 17E-233I], the maximal respiration entry in data set [1] (25 µM) is “significantly decreased”. The “basal and ATP-linked respiration in intact cells” value in data set [1] (NK-A 17E-233I 25 µM, Brequinar 100 µM) is “retained basal respiration”. The “late-apoptotic cells (Annexin V-FITC)” value in data set [2] (48 h) is listed as “significantly increased”. The “apoptosis with pan-caspase inhibitor Z-VAD-FMK” value in data set [2] (Z-VAD-FMK 10 µM, 24 h) is “abolished its activity”. The “progression through mitosis (G2/M)” value in data set [3] is “failed to progress through mitosis”. Besides, the “mitochondrial membrane potential (ΔΨm)” value was “significantly decreased” in data set [4] (HCT116, 25 µM, 24 h) and “decreased” in data set [4] (different cancer cell lines (HT-29), 25 µM). Moreover, the “dendritic and cytoskeletal structures (F-actin, MAP2)” value in data set [5] is “retained their dendritic and cytoskeletal structures”. The cytotoxic effects result in data set [6] is listed as “cytotoxic effects”. In data set [7], the “sensitivity of tumor-derived organoids” value is listed as “demonstrated sensitivity to NK-A 17E-233I in a dose-dependent manner”.
